US20250154138A1, “Small Molecule IL-17A Modulators” (BeiGene, Ltd., priority 2022, published 2025)

Columns and labels:
[1] = target: human IL-17A / human IL-17RA (Homo sapiens (Human), UniProt Q16552); assay: Human IL-17A biochemical assay (HTRF, blocking of IL-17A binding to IL-17RA); conditions: 0.4 nM IL-17A, 0.3 nM IL-17RA, max compound concentration 10 uM
How it was run: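 HTRF competition: 0.4 nM recombinant human IL-17A pre-incubated 3 h at room temperature with compound (top 10 uM, 2.7-fold, 10 points) in HEPES pH 7.5 buffer, then 0.3 nM IL-17RA added for 1 h, then anti-6His-Tb/anti-human IgG-XL665 detection for 1 h.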

[2] = system: IL-17-induced GROα secretion from HT-29 cells; assay: GROα release assay in human colorectal adenocarcinoma epithelial cell (HT-29, ELISA); type: cell-based; conditions: Homo sapiens, HT-29, 48 h, 10 ng/mL IL-17A, highest concentration 10 μM, read-out: Cellular assay HT29 cell/CXCL1 IC50
How it was run: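 HT-29 cells were exposed 48 h at 37°C to IL-17A (final 10 ng/mL) preincubated 15 min with compound (4-fold dilutions, top 10 μM). Secreted GROα was quantified by ELISA against a standard curve, and IC50 obtained by four-parameter fitting.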

Chain of human IL-17A / human IL-17RA (Q16552 24-155): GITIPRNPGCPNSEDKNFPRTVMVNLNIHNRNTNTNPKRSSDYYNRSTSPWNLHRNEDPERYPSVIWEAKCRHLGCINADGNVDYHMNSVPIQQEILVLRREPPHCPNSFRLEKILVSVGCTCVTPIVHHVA

Structure (SMILES) | IC50 [1] [nM] | IC50 [2] [nM]
Cc1nonc1C(=O)N[C@H](C(=O)Nc1ccc2c(c1)CC(C(=O)Nc1ccccc1C(F)(F)F)(N1C[C@@H](C(C)C)NC1=O)C2)C(C1CC1)C1CC1 (stereo partly drawn) [Example 272, N-((2S)-1,1-dicyclopropyl-3-((2-((R)-4-isopropyl-2-oxoimidazolidin-1-yl)-2-((2-(trifluoromethyl)phenyl)carbamoyl)-2,3-dihydro-1H-inden-5-yl)amino)-3-oxopropan-2-yl)-4-methyl-1,2,5-oxadiazole-3-carboxamide] | 295 | 650
Cc1nonc1C(=O)N[C@H](C(=O)Nc1ccc2c(c1)CC(C(=O)NC1CC1(F)F)(N1C[C@@H](C(C)C)NC1=O)C2)C(C1CC1)C1CC1 (stereo partly drawn) [Example 273, N-((2S)-1,1-dicyclopropyl-3-((2-((2,2-difluorocyclopropyl)carbamoyl)-2-((R)-4-isopropyl-2-oxoimidazolidin-1-yl)-2,3-dihydro-1H-inden-5-yl)amino)-3-oxopropan-2-yl)-4-methyl-1,2,5-oxadiazole-3-carboxamide] | 34.7 | 66.1
Cc1nonc1C(=O)N[C@H](C(=O)Nc1ccc2c(c1)CC(C(=O)Nc1cnccc1Cl)(N1C[C@@H](C(C)C)NC1=O)C2)C(C1CC1)C1CC1 (stereo partly drawn) [Example 274, N-((2S)-1-((2-((4-chloropyridin-3-yl)carbamoyl)-2-((R)-4-isopropyl-2-oxoimidazolidin-1-yl)-2,3-dihydro-1H-inden-5-yl)amino)-3,3-dicyclopropyl-1-oxopropan-2-yl)-4-methyl-1,2,5-oxadiazole-3-carboxamide] | 42.4 | 67.6
Cc1nonc1C(=O)N[C@H](C(=O)Nc1ccc2c(c1)CC(C(=O)Nc1c(F)cccc1Cl)(N1C[C@@H](C(C)C)NC1=O)C2)C(C1CC1)C1CC1 (stereo partly drawn) [Example 275, N-((2S)-1-((2-((2-chloro-6-fluorophenyl)carbamoyl)-2-((R)-4-isopropyl-2-oxoimidazolidin-1-yl)-2,3-dihydro-1H-inden-5-yl)amino)-3,3-dicyclopropyl-1-oxopropan-2-yl)-4-methyl-1,2,5-oxadiazole-3-carboxamide] | 61.3 | 133
Cc1nonc1C(=O)N[C@H](C(=O)Nc1ccc2c(c1)OC(C(C)N1C[C@@H](C(F)(F)F)NC1=O)C2)C(C1CC1)C1CC1 (stereo partly drawn) [Example 276, N-((2S)-1,1-dicyclopropyl-3-oxo-3-((2-(1-((S)-2-oxo-4-(trifluoromethyl)imidazolidin-1-yl)ethyl)-2,3-dihydrobenzofuran-6-yl)amino)propan-2-yl)-4-methyl-1,2,5-oxadiazole-3-carboxamide] | 573 | 1460
CC(C1Cc2ccc(NC(=O)[C@@H](NC(=O)c3ccnn3C(C)C)C(C3CC3)C3CC3)cc2O1)N1C[C@@H](C(F)(F)F)NC1=O (stereo partly drawn) [Example 277, N-((2S)-1,1-dicyclopropyl-3-oxo-3-((2-(1-((S)-2-oxo-4-(trifluoromethyl)imidazolidin-1-yl)ethyl)-2,3-dihydrobenzofuran-6-yl)amino)propan-2-yl)-1-isopropyl-1H-pyrazole-5-carboxamide] | 560 | 1280
Cc1nonc1C(=O)N[C@H](C(=O)Nc1ccc2c(c1)CC(C(=O)Nc1cc(F)ccc1Cl)(N1C[C@@H](C(C)C)NC1=O)C2)C(C1CC1)C1CC1 (stereo partly drawn) [Example 278, N-((2S)-1-((2-((2-chloro-5-fluorophenyl)carbamoyl)-2-((R)-4-isopropyl-2-oxoimidazolidin-1-yl)-2,3-dihydro-1H-inden-5-yl)amino)-3,3-dicyclopropyl-1-oxopropan-2-yl)-4-methyl-1,2,5-oxadiazole-3-carboxamide] | 333 | 122
Cc1nonc1C(=O)N[C@H](C(=O)Nc1ccc2c(c1)CC(N1CC(C(F)(F)F)NC1=O)(C(C)(C)O)C2)C(C1CC1)C1CC1 (stereo partly drawn) [Example 279, N-((2S)-1,1-dicyclopropyl-3-((2-(2-hydroxypropan-2-yl)-2-(2-oxo-4-(trifluoromethyl)imidazolidin-1-yl)-2,3-dihydro-1H-inden-5-yl)amino)-3-oxopropan-2-yl)-4-methyl-1,2,5-oxadiazole-3-carboxamide] | 64.8 | 69.1
Cc1nonc1C(=O)N[C@H](C(=O)Nc1ccc2c(c1)CC(C(=O)NC1CCOC1)(N1C[C@@H](C(C)C)NC1=O)C2)C(C1CC1)C1CC1 (stereo partly drawn) [Example 280, N-((2S)-1,1-dicyclopropyl-3-((2-((R)-4-isopropyl-2-oxoimidazolidin-1-yl)-2-((tetrahydrofuran-3-yl)carbamoyl)-2,3-dihydro-1H-inden-5-yl)amino)-3-oxopropan-2-yl)-4-methyl-1,2,5-oxadiazole-3-carboxamide] | 17.3 | 48.1
Cc1nonc1C(=O)N[C@H](C(=O)Nc1ccc2c(c1)CC(C(=O)NC(C1CC1)C1CC1)(N1C[C@@H](C(C)C)NC1=O)C2)C(C1CC1)C1CC1 (stereo partly drawn) [Example 281, N-((2S)-1,1-dicyclopropyl-3-((2-((dicyclopropylmethyl)carbamoyl)-2-((R)-4-isopropyl-2-oxoimidazolidin-1-yl)-2,3-dihydro-1H-inden-5-yl)amino)-3-oxopropan-2-yl)-4-methyl-1,2,5-oxadiazole-3-carboxamide] | 16.5 | 67.4
Cc1nonc1C(=O)N[C@H](C(=O)Nc1ccc2c(c1)CC(C(=O)NC1CCCC1)(N1C[C@@H](C(C)C)NC1=O)C2)C(C1CC1)C1CC1 (stereo partly drawn) [Example 282, N-((2S)-1-((2-(cyclopentylcarbamoyl)-2-((R)-4-isopropyl-2-oxoimidazolidin-1-yl)-2,3-dihydro-1H-inden-5-yl)amino)-3,3-dicyclopropyl-1-oxopropan-2-yl)-4-methyl-1,2,5-oxadiazole-3-carboxamide] | 33.7 | 95.3
Cc1nonc1C(=O)N[C@H](C(=O)Nc1ccc2c(c1)CC(C(=O)Nc1ccccc1C#N)(N1C[C@@H](C(C)C)NC1=O)C2)C(C1CC1)C1CC1 (stereo partly drawn) [Example 283, N-((2S)-1-((2-((2-cyanophenyl)carbamoyl)-2-((R)-4-isopropyl-2-oxoimidazolidin-1-yl)-2,3-dihydro-1H-inden-5-yl)amino)-3,3-dicyclopropyl-1-oxopropan-2-yl)-4-methyl-1,2,5-oxadiazole-3-carboxamide] | 32.5 | 34.6
Cc1nonc1C(=O)N[C@H](C(=O)Nc1ccc2c(c1)CC(C(=O)Nc1ccncc1Cl)(N1C[C@@H](C(C)C)NC1=O)C2)C(C1CC1)C1CC1 (stereo partly drawn) [Example 284, N-((2S)-1-((2-((3-chloropyridin-4-yl)carbamoyl)-2-((R)-4-isopropyl-2-oxoimidazolidin-1-yl)-2,3-dihydro-1H-inden-5-yl)amino)-3,3-dicyclopropyl-1-oxopropan-2-yl)-4-methyl-1,2,5-oxadiazole-3-carboxamide] | 268 | 354
Cc1nonc1C(=O)N[C@H](C(=O)Nc1ccc2c(c1)CC(C(=O)Nc1cncs1)(N1C[C@@H](C(C)C)NC1=O)C2)C(C1CC1)C1CC1 (stereo partly drawn) [Example 285, N-((2S)-1,1-dicyclopropyl-3-((2-((R)-4-isopropyl-2-oxoimidazolidin-1-yl)-2-(thiazol-5-ylcarbamoyl)-2,3-dihydro-1H-inden-5-yl)amino)-3-oxopropan-2-yl)-4-methyl-1,2,5-oxadiazole-3-carboxamide] | 71.4 | 90.2
CC(C)[C@@H]1CN(CC2Cc3ccc(NC(=O)[C@@H](NC(=O)c4ccnn4C(C)C)C(C4CC4)C4CC4)cc3N2)C(=O)N1 (stereo partly drawn) [Example 286, N-((2S)-1,1-dicyclopropyl-3-((2-(((R)-4-isopropyl-2-oxoimidazolidin-1-yl)methyl)indolin-6-yl)amino)-3-oxopropan-2-yl)-1-isopropyl-1H-pyrazole-5-carboxamide] | 144 | 430
CC(C)[C@@H]1CN(CC2Cc3ccc(NC(=O)[C@@H](NC(=O)c4ccnn4C(C)C)C(C4CC4)C4CC4)cc3N2C)C(=O)N1 (stereo partly drawn) [Example 287, N-((2S)-1,1-dicyclopropyl-3-((2-(((R)-4-isopropyl-2-oxoimidazolidin-1-yl)methyl)-1-methylindolin-6-yl)amino)-3-oxopropan-2-yl)-1-isopropyl-1H-pyrazole-5-carboxamide] | 61.5 | 222
Cc1nonc1C(=O)N[C@H](C(=O)Nc1ccc2c(c1)CC(C(=O)Nc1ccccc1C(C)C)(N1C[C@@H](C(C)C)NC1=O)C2)C(C1CC1)C1CC1 (stereo partly drawn) [Example 288, N-((2S)-1,1-dicyclopropyl-3-((2-((R)-4-isopropyl-2-oxoimidazolidin-1-yl)-2-((2-isopropylphenyl)carbamoyl)-2,3-dihydro-1H-inden-5-yl)amino)-3-oxopropan-2-yl)-4-methyl-1,2,5-oxadiazole-3-carboxamide] | 110 | 408
CCc1ccccc1NC(=O)C1(N2C[C@@H](C(C)C)NC2=O)Cc2ccc(NC(=O)[C@@H](NC(=O)c3nonc3C)C(C3CC3)C3CC3)cc2C1 (stereo partly drawn) [Example 289, N-((2S)-1,1-dicyclopropyl-3-((2-((2-ethylphenyl)carbamoyl)-2-((R)-4-isopropyl-2-oxoimidazolidin-1-yl)-2,3-dihydro-1H-inden-5-yl)amino)-3-oxopropan-2-yl)-4-methyl-1,2,5-oxadiazole-3-carboxamide] | 24.5 | 81.4
Cn1nccc1C(=O)N[C@H](C(=O)Nc1ccc2c(c1)OCC(CN1CC(C(F)(F)F)NC1=O)C2)C1CCCCC1 (stereo partly drawn) [Example 291, N-((1S)-1-cyclohexyl-2-oxo-2-((3-(((S)-2-oxo-4-(trifluoromethyl)imidazolidin-1-yl)methyl)chroman-7-yl)amino)ethyl)-1-methyl-1H-pyrazole-5-carboxamide] | 1550 | 1060
